# In patent US9931300B2, “Methods for superdisintegrant-based composite particles for dispersion and dissolution of active pharmaceutical agents” (New Jersey Institute of Technology, priority 2012, dated 2018):
# Legend:
# [1] = cited from earlier work
# [2] = USP II dissolution test of NCMPs in deionized water; assay type: physicochemical
# Procedure: Dissolution tests were carried out in a standard USP II apparatus with about 50 rpm paddle speed. A sample of NCMPs (n=6) containing about 8.9 mg GF were dissolved in about 1000 ml deionized water at about 37° C., and samples taken from the vessel were syringe-filtered (0.1 μm filter) and assayed via UV spectroscopy. Unlike in the re-dispersion test, the use of a large amount of water ensures substantially full solubilization of the drug in this test.
# [3] = Particle size of as-received / dry powders (Rodos/Helos laser diffraction where stated); assay type: physicochemical; conditions: as-received or dry
# Procedure: The particle sizes of GF suspensions after milling in Runs 2, 3, and 5 (about 10% GF/about 2.5% HPC) indicate that the milling results were fairly reproducible. […] The dry particle size of CCS, as measured by Rodos/Helos laser diffraction system, was D10: 12.90 μm, D50: 28.55 μm, and D90: 66.09 The particle size increased to D10:13.74 μm, D50: 63.68 μm and D90: 96.28 μm after about 3 h swelling in de-ionized water as measured by Coulter LS13320 with the liquid module.
# The suspensions were coated onto Pharmatose® carrier particles in the fluidized bed processor. The particle size statistics of Pharmatose® as measured by Rodos is D10: 58 μm, D50: 116 μm and D90: 206 μm. The median particle size of Pharmatose® increased from about 116 μm to about 120-150 μm due to coating and some agglomeration.
GF dissolved in about 60 min [2],particle size D10 of as-received / dry powder [3] [μm],particle size D50 of as-received / dry powder [3] [μm],particle size D90 of as-received / dry powder [3] [μm],Compound,solubility in water ([1]; water),"solubility in methanol ([1]; methanol, about 25° C.)"
,,,,OC[C@@H](O)[C@@H](O)[C@H](O)[C@H](O)CO [Mannitol],about 180 g/L,
about 14%,3.9,16.0,47.4,"COC1=CC(=O)C[C@@H](C)[C@]12Oc1c(Cl)c(OC)cc(OC)c1C2=O [GF, griseofulvin]",,about 30 mg/ml
